The structures appear in SMILES notation. Active and inactive are the calls of the source. The calls are words filed in the database; no cut-off is given here. A value given as a limit tells only on which side of the number the result lay.

The subject of series [1] is Hepatitis C virus. Put plainly: Inhibition of HCV 1b RB01 NS5B by filtermat assay. The arrangement: species or system Hepatitis C virus subtype 1b.
The test system of series [2] is Hepatitis C virus. The series is described as follows: Antiviral activity against HCV replicon containing HCV 1b genome transfected in Huh7 cells after 72 hrs by ELISA. Format: functional, organism-based, Hepacivirus hominis. The conditions noted are these: genotype 1b, Huh-7, 72 h.
A short description of series [3]: Cytotoxicity against Vero cells after 4 days. Format: cell-based. The conditions noted are these: chlorocebus sabaeus, read-out: CCID50.
The nature of series [4]: Plasma clearance in Sprague-Dawley rat at 1 mg/kg, iv. Format: ADME, organism-based. The arrangement: dose 1 mg/kg, route intravenous.
Series [5] is described as follows: Bioavailability in Sprague-Dawley rat at 2 mg/kg, po and 1 mg/kg, iv. Format: ADME, organism-based. The conditions noted are these: in vivo.
For series [6], the system named is Hepatitis C virus. Put plainly: Inhibition of HCV 1b RB01 NS5B by SPA. On the set-up: species or system Hepatitis C virus subtype 1b.
Series [7] in a line: Lipophilicity, log D of the compound. Format: physicochemical. The conditions noted are these: octanol/water.
The subject of series [8] is Hepatitis C virus. The series is described as follows: Antiviral activity against HCV replicon containing HCV 1b genome transfected in Huh7 cells in presence of interferon alpha 2a. Format: functional, organism-based. The conditions noted are these: Hepacivirus hominis; genotype 1b; Huh-7.

A word on the IC50: it is the concentration at which inhibition is half-maximal. Lower therefore signals greater potency. The EC50 is the concentration needed to bring the measured effect to its halfway point. By clearance is commonly meant a measure of how efficiently the substance is removed, as volume per time. Read a high clearance as a high capacity for elimination. Turning to `COc1cc(C(=O)N2[C@@H](c3nccs3)[C@@H](C(N)=O)C[C@@]2(CC(C)C)C(=O)O)ccc1C(C)(C)C`, the IC50 in the series with Hepatitis C virus [1] was 5 nM. Besides, a half-maximal effect with Hepatitis C virus [2] (EC50) was put at 610 nM. Further, the CC50 at 96 h in series [3] is more than 500000 nM. This compound gave a clearance in series [4] of 37 mL/min/kg. The bioavailability in series [5] was 0.6%.

`COc1cc(C(=O)N2[C@@H](c3nccs3)[C@@H](CO)C[C@@]2(CC(C)C)C(=O)O)ccc1C(C)(C)C` (racemic) had an IC50 with Hepatitis C virus [6] of 730 nM. The EC50 in the series with Hepatitis C virus [2] was 210 nM. Also, in series [3], the CC50 at 96 h was 358000 nM. Moreover, the clearance in series [4] turned out to be 36 mL/min/kg. In series [5], the bioavailability amounted to 12%.

`CC(C)C[C@@]1(C(=O)O)C[C@H](C(N)=O)[C@H](c2nccs2)N1C(=O)c1ccc(C(C)(C)C)c(Cl)c1` had an IC50 in the series with Hepatitis C virus [1] of 20 nM. The compound also displayed an EC50 with Hepatitis C virus [2] of 1200 nM. For the same compound, in series [3], the CC50 at 96 h was more than 500000 nM. This compound registered a clearance in series [4] of 29 mL/min/kg. Moreover, the bioavailability in series [5] was 5%.

In turn, `CC(C)C[C@@]1(C(=O)O)C[C@H](C(=O)O)[C@H](c2nccs2)N1C(=O)c1ccc(C(C)(C)C)cc1` (racemic) yielded an IC50 with Hepatitis C virus [1] of 3800 nM. The EC50 in the series with Hepatitis C virus [2] was more than 20000 nM. The CC50 at 96 h in series [3] was more than 500000 nM.

Turning to `CC(C)C[C@@]1(C(=O)O)C[C@H](C(N)=O)[C@H](c2nccs2)N1C(=O)c1ccc(C(C)(C)C)cc1`, the midpoint of inhibition in the series on Hepatitis C virus [1], the IC50, lay at 970 nM. Further, the EC50 in the series on Hepatitis C virus [2] is more than 20000 nM. In addition, in series [3], the CC50 at 96 h turned out to be 430000 nM. Further, the clearance in series [4] came to 21 mL/min/kg. Further, in series [5], the bioavailability was 2%.

On to `CC(C)C[C@@]1(C(=O)O)C[C@H](C(=O)O)[C@H](c2cccs2)N1C(=O)c1ccc(C(C)(C)C)cc1` (racemic), for which half-maximal inhibition with Hepatitis C virus [1] (IC50) was put at 1100 nM. For the same compound, the EC50 in the series on Hepatitis C virus [2] is more than 20000 nM. In addition, the CC50 at 96 h in series [3] is more than 500000 nM.

`CC(C)C[C@@]1(C(=O)O)C[C@H](C(=O)O)[C@H](c2cccs2)N1C(=O)c1ccc(C(F)(F)F)cc1` (racemic): in the series on Hepatitis C virus [1], the IC50 turned out to be 20000 nM. The compound further yielded an EC50 in the series with Hepatitis C virus [2] of more than 20000 nM. For the same compound, the CC50 at 96 h in series [3] was more than 500000 nM.

`CC(C)C[C@@]1(C(=O)O)C[C@H](C(N)=O)[C@H](c2nccs2)N1C(=O)c1ccc(C(C)(C)C)c(Br)c1` registered an IC50 in the series with Hepatitis C virus [1] of 14 nM. The compound also registered an EC50 in the series with Hepatitis C virus [2] of 570 nM. Also, in series [3], the CC50 at 96 h was more than 500000 nM. Also, the clearance in series [4] is 24 mL/min/kg. Moreover, the bioavailability in series [5] was determined as 2%.

The logD is lipophilicity at a set pH, counting ionised and neutral species. Low values mean lower lipophilicity, high ones higher lipophilicity. Regarding `CCOC[C@H]1C[C@@](CC(C)C)(C(=O)O)N(C(=O)c2ccc(C(C)(C)C)c(OC)c2)[C@H]1c1nccs1`, the IC50 in the series on Hepatitis C virus [6] stood at 430 nM. This compound also yielded an EC50 in the series on Hepatitis C virus [2] of 470 nM. Further, the logD in series [7] came out at 2.7. Moreover, in series [3], the CC50 at 96 h was found to be 142000 nM. Also, the clearance in series [4] turned out to be 5 mL/min/kg. The bioavailability in series [5] was determined as 120%.

Turning to `COC[C@H]1C[C@@](CC(C)C)(C(=O)O)N(C(=O)c2ccc(C(C)(C)C)c(OC)c2)[C@H]1c1nccs1`, in the series with Hepatitis C virus [8], the outcome was Active. In the series on Hepatitis C virus [6], this compound had an IC50 of 440 nM. Besides, in the series with Hepatitis C virus [2], the midpoint of the response, the EC50, lay at 390 nM. In addition, in series [7], the logD was determined as 2.2. Moreover, the CC50 at 96 h in series [3] was 240000 nM. In series [4], this compound yielded a clearance of 5 mL/min/kg. In addition, the bioavailability in series [5] is 59%.

Regarding `COC[C@@H]1C[C@@](CC(C)C)(C(=O)O)N(C(=O)c2ccc(C(C)(C)C)c(OC)c2)[C@H]1c1nccs1`, the IC50 in the series on Hepatitis C virus [6] was 2300 nM. This compound registered an EC50 with Hepatitis C virus [2] of 5700 nM. Besides, the CC50 at 96 h in series [3] was determined as 265000 nM. The compound further showed a clearance in series [4] of 12 mL/min/kg. The bioavailability in series [5] stood at 44%.

In turn, `CCOC[C@@H]1C[C@@](CC(C)C)(C(=O)O)N(C(=O)c2ccc(C(C)(C)C)c(OC)c2)[C@H]1c1nccs1` (racemic) gave an IC50 with Hepatitis C virus [6] of 3200 nM. Also, in the series with Hepatitis C virus [2], the EC50 turned out to be 12800 nM. The CC50 at 96 h in series [3] was 214000 nM.

The compound `COc1cc(C(=O)N2[C@@H](c3nccs3)[C@H](CO)C[C@@]2(CC(C)C)C(=O)O)ccc1C(C)(C)C` (racemic) came in with an IC50 in the series on Hepatitis C virus [6] of 1000 nM. Further, the EC50 in the series on Hepatitis C virus [2] turned out to be 1300 nM. In series [3], the CC50 at 96 h came out at 482000 nM. This compound also gave a clearance in series [4] of 39 mL/min/kg. In addition, the bioavailability in series [5] amounted to 11%.

The values above are taken from ChEMBL document CHEMBL1142239, “Optimization of novel acyl pyrrolidine inhibitors of hepatitis C virus RNA-dependent RNA polymerase leading to a development candidate” (J Med Chem, 2007).
